# ChEMBL document CHEMBL2417415, “Polyketides with New Delhi metallo-β-lactamase 1 inhibitory activity from Penicillium sp” (J Nat Prod, 2013)
# The source made the active and inactive calls. The rule behind the calls is not given here.
# How the values were obtained:
# Influenza A virus [1] = experiment: Antiviral activity against influenza A virus A/FM/1/47 (H1N1) infected in MDCK cells at 10 uM by Reed and Muench analysis; format: functional, organism-based
# Coxsackievirus B3 = experiment: Antiviral activity against Coxsackievirus B3 at 10 uM; format: functional, organism-based
# BGC-823 = experiment: Cytotoxicity assay against human BGC823 cells at 10 uM after 96 hrs by MTT assay; format: functional, cell-based
# HCT-8 = experiment: Cytotoxicity assay against human HCT8 cells at 10 uM after 96 hrs by MTT assay; format: functional, cell-based
# MCF7 = experiment: Cytotoxicity assay against human MCF7 cells at 10 uM after 96 hrs by MTT assay; format: functional, cell-based
# A549 = experiment: Cytotoxicity assay against human A549 cells at 10 uM after 96 hrs by MTT assay; format: functional, cell-based
# Klebsiella pneumoniae [2] = experiment: Antibacterial activity against Klebsiella pneumoniae ATCC BAA-2146 at 10 uM after 24 hrs by spectrophotometry; format: functional, organism-based
# Bel-7402 = experiment: Cytotoxicity assay against human Bel7402 cells at 10 uM after 96 hrs by MTT assay; format: functional, cell-based
# KETR3 = experiment: Cytotoxicity assay against human Ketr3 cells at 10 uM after 96 hrs by MTT assay; format: functional, cell-based
# Influenza A virus [3] = experiment: Antiviral activity against influenza A virus A/Hanfang/359/95 (H3N2) infected in MDCK cells at 10 uM by Reed and Muench analysis; format: functional, organism-based
# Klebsiella pneumoniae [4] = experiment: Antibacterial activity against Klebsiella pneumoniae ATCC BAA-2146 after 24 hrs by spectrophotometry; format: functional; conditions: ATCC BAA-2146, 24 h
# [5] = Inhibition of NDM-1 (unknown origin) expressed in Escherichia coli BL21 using meropenem as substrate compound preincubated for 15 min by spectrophotometry
# Klebsiella pneumoniae [6] = experiment: Antibacterial activity against Klebsiella pneumoniae ATCC BAA-2146 at 256 ug/mL after 24 hrs by spectrophotometry; format: functional, organism-based
# Klebsiella pneumoniae [7] = experiment: Antibacterial activity against Klebsiella pneumoniae ATCC BAA-2146 assessed as reduction in meropenem MIC at 128 ug/mL after 24 hrs by spectrophotometry; format: functional, organism-based
Structure (SMILES),Activity (Influenza A virus [1]),Activity (Coxsackievirus B3),Activity (BGC-823),Activity (HCT-8),Activity (MCF7),Activity (A549),Activity (Klebsiella pneumoniae [2]),Activity (Bel-7402),Activity (KETR3),Activity (Influenza A virus [3]),MIC (Klebsiella pneumoniae [4]) [µg/mL],IC50 [5] [µM],Activity (Klebsiella pneumoniae [6]),Activity (Klebsiella pneumoniae [7])
C[C@H]1C[C@@H](O)[C@@H]2O[C@@H]2[C@H]1O,inactive,inactive,inactive,inactive,inactive,inactive,inactive,inactive,inactive,inactive,,,,
C[C@@H](O)[C@H]1C(=O)N2C(C(=O)O)=C(S[C@@H]3CN[C@H](C(=O)N(C)C)C3)[C@H](C)[C@H]12 [MEROPENEM],,,,,,,,,,,128,,,
COc1c(O)cc2oc3cc(C)ncc3c(=O)c2c1C(=O)O,inactive,inactive,inactive,inactive,inactive,inactive,inactive,inactive,inactive,inactive,,87.9,inactive,inactive
O=C(O)C[C@H](NC(=O)c1cc(=O)[nH]c2ccccc12)C(=O)O,inactive,inactive,inactive,inactive,inactive,inactive,inactive,inactive,inactive,inactive,,,,
C[C@H](CS)C(=O)N1CCC[C@H]1C(=O)O [CAPTOPRIL],,,,,,,,,,,,108,,
O=C(O)CN(CCN(CC(=O)O)CC(=O)O)CC(=O)O [EDETIC ACID],,,,,,,,,,,,< 0.1,,
CC(=O)C[C@H](O)c1coc2cc(O)cc(C(=O)O)c2c1=O,inactive,inactive,inactive,inactive,inactive,inactive,inactive,inactive,inactive,inactive,,94.9,inactive,inactive
C[C@H](CS)C(=O)N1CCC[C@@H]1C(=O)O [D-CAPTOPRIL],,,,,,,,,,,,8,,
